The experiment has as its system Hyperlipidemic Hamster. Kind of experiment: In Vivo Assay of Hypolipidemic Agents Using the Hyperlipidemic Hamster. The following applies: 0.5% cholesterol diet 7 days, oral gavage once daily in corn oil, percent change versus control, negative = lowering; for change in vivo at 50 mg/kg / change in vivo at 10 mg/kg / change in vivo at 5 mg/kg / change in vivo at 8 mg/kg / change in vivo at 7 mg/kg / change in vivo at 3 mg/kg / change in vivo at 1 mg/kg: Mesocricetus auratus, 168 h. How it is done: The in vivo activity of the compounds of formula I can be determined by the following procedure: […]
In Vivo Assay of Hypoligidemic Hypolipidemic Agents Using the Hyperlipidemic Hamster
Hamsters are separated into groups of six and given a controlled cholesterol diet (Purina Chow #5001 containing 0.5% cholesterol) for seven days. Diet consumption is monitored to determine dietary cholesterol exposure in the face of test compounds. The animals are dosed with the test compound once daily beginning with the initiation of diet. Dosing is by oral gavage of 0.2 mL of corn oil alone (control group) or solution (or suspension) of test compound in corn oil. All animals moribund or in poor physical condition are euthanized. After seven days, the animals are anesthetized by intramuscular (IM) injection of ketamine and sacrificed by decapitation. Blood is collected into vacutainer tubes containing EDTA for plasma lipid analysis and the liver excised for tissue lipid analysis. Lipid analysis is conducted as per published procedures (Schnitzer-Polokoff, R., et al. Comp. Biochem. Physiol., 99A, 4 (1991), p. 665-670) and data is reported as percent reduction of lipid versus control.
Using the test procedures described above, the following in vivo data were obtained for the exemplified compounds. Data is reported as percent change (i.e., percent reduction in cholesterol esters) versus control, therefore, negative numbers indicate a positive lipid-lowering effect.

The mark [1] stands for this setting: liver cholesterol esters, read-out: % Reduction Cholest. Esters.
[2] abbreviates: po, read-out: % Reduction Serum Cholest.
Setting [3] is: liver cholesterol esters, dose 10 mg/kg, read-out: % Reduction Cholest. Esters.
Setting [4] is: po, dose 10 mg/kg, read-out: % Reduction Serum Cholest.
[5] abbreviates: liver cholesterol esters, dose 10 mg/kg.
The mark [6] stands for this setting: liver cholesterol esters, dose 1 mg/kg.
Setting [7] is: liver cholesterol esters, dose 1 mg/kg, read-out: % Reduction Cholest. Esters.
Where [8] appears, read: po, dose 1 mg/kg, read-out: % Reduction Serum Cholest.

Here are results for 26 compounds from patent USRE42461E1, “Hydroxy-substituted azetidinone compounds useful as hypocholesterolemic agents” (Schering Corporation, priority 1994, dated 2011).

Like-named read-outs stand apart in the source and are kept apart here.

Regarding `COc1ccc([C@H]2C(C[C@@H](O)c3ccccc3)C(=O)N2c2ccccc2)cc1` (stereo partly shown) [Example 1A], the change in vivo at 50 mg/kg is 0% under setting [1] and -2.3% under setting [2].
Consider `COc1ccc([C@@H]2C(C[C@@H](O)c3ccccc3)C(=O)N2c2ccccc2)cc1` (stereo partly shown) [Example 1B], for which the change in vivo at 50 mg/kg runs as follows: under setting [1], -39%; under setting [2], -15%.
Taken in the same sequence, the figures for `COc1ccc([C@H]2C(C[C@@H](OC(C)=O)c3ccccc3)C(=O)N2c2ccccc2)cc1` (stereo partly shown) [Example 2] were 0% and 0%.
For `COc1ccc([C@@H]2C([C@@H](O)CCc3ccccc3)C(=O)N2c2ccccc2)cc1` (stereo partly shown) [Example 3A] the same measures were -69% and -31%.
As for `COc1ccc([C@@H]2[C@H](C(O)CCc3ccccc3)C(=O)N2c2ccccc2)cc1` (stereo partly shown) [Example 3C], the change in vivo at 50 mg/kg under setting [1] was -92% and the change in vivo at 50 mg/kg under setting [2] is -60%.
With `COc1ccc([C@@H]2[C@H]([C@H](O)CCc3ccccc3)C(=O)N2c2ccccc2)cc1` [Example 3H], the change in vivo at 10 mg/kg is -86% under setting [3] and -41% under setting [4].
Consider `COc1ccc([C@@H]2C([C@@H](O)c3cccc4ccccc34)C(=O)N2c2ccccc2)cc1` (stereo partly shown) [Example 3L], for which, for the setting “dose 10 mg/kg”, the “% Reduction Serum Cholest.” value is listed as −15%. Further, the “% Reduction Cholest. Esters” value under setting [5] is given as −21%.
For `COc1ccc([C@@H]2C([C@@H](O)c3cccc4ccccc34)C(=O)N2c2ccccc2)cc1` (stereo partly shown) [Example 3M] the same measures were 0% and −22%.
On to `COc1ccc([C@@H]2C(CC[C@@H](O)c3ccccc3)C(=O)N2c2ccc(OC)cc2)cc1` (stereo partly shown) [Example 4A], for which the change in vivo at 5 mg/kg is, setting by setting: under setting [1], -54%; under setting [2], 0%.
For the compound `COc1ccc([C@@H]2C(CC[C@H](O)c3ccccc3)C(=O)N2c2ccc(OC)cc2)cc1` (stereo partly shown) [Example 4B], the change in vivo at 8 mg/kg under setting [1] is -89% and the change in vivo at 8 mg/kg under setting [2] is -37%.
On to `COc1ccc([C@H]2[C@H](CC[C@H](O)c3ccccc3)C(=O)N2c2ccc(OC)cc2)cc1` [Example 4D], for which the change in vivo at 7 mg/kg reads like this: under setting [1], 0%; under setting [2], 9%.
As to `COc1ccc(N2C(=O)C(CC[C@@H](O)c3ccccc3)[C@H]2c2ccc(O)cc2)cc1` (stereo partly shown) [Example 4E], the change in vivo at 3 mg/kg runs as follows: under setting [1], -46%; under setting [2], 0%.
For `COc1ccc(N2C(=O)C(CC[C@H](O)c3ccccc3)[C@H]2c2ccc(O)cc2)cc1` (stereo partly shown) [Example 4F] the same measures were -95% and -29%.
Take `COCOc1ccc(C(O)CCC2C(=O)N(c3ccc(OC)cc3)[C@@H]2c2ccc(OC)cc2)cc1` (stereo partly shown) [Example 5]: the change in vivo at 10 mg/kg is, setting by setting: under setting [3], -64%; under setting [4], 0%.
On to `O=C1[C@H](CC[C@H](O)c2ccc(F)cc2)[C@@H](c2ccc(OCc3ccccc3)cc2)N1c1ccc(F)cc1` [Example 6A-1], for which the “% Reduction Serum Cholest.” value (dose 1 mg/kg) is on record as −43%. Also, under setting [6], the “% Reduction Cholest. Esters” value was −93%.
For `O=C1C(CC[C@H](O)c2ccc(F)cc2)[C@@H](c2ccc(O)cc2)N1c1ccc(F)cc1` (stereo partly shown) [Example 6A], the change in vivo at 1 mg/kg reads like this: under setting [7], -95%; under setting [8], -59%.
As to `O=C1C(CC[C@@H](O)c2ccc(F)cc2)[C@@H](c2ccc(O)cc2)N1c1ccc(F)cc1` (stereo partly shown) [Example 6B], the change in vivo at 3 mg/kg by setting is: under setting [1], -92%; under setting [2], -40%.
Taken in the same sequence, the figures for `COc1ccc(N2C(=O)C(CC[C@@H](O)c3ccccc3)[C@H]2c2ccc(OC(C)=O)cc2)cc1` (stereo partly shown) [Example 6C] were -48% and 0%.
On to `COc1ccc(N2C(=O)C(CC[C@H](O)c3ccccc3)[C@H]2c2ccc(OC(C)=O)cc2)cc1` (stereo partly shown) [Example 6D], for which the change in vivo at 10 mg/kg reads like this: under setting [3], -95%; under setting [4], -46%.
As to `COc1ccc([C@@H]2[C@@H](CC[C@@H](OC(C)=O)c3ccccc3)C(=O)N2c2ccc(OC)cc2)cc1` [Example 8A, 1,4(S)-bis(4-methoxyphenyl)-3(R)-(3(R)-acetoxy-3-phenylpropyl)-2-azetidinone], the change in vivo at 3 mg/kg was -44% under setting [1] and 0% under setting [2].
Taken in the same sequence, the figures for `COc1ccc([C@@H]2[C@@H](CC[C@H](OC(C)=O)c3ccccc3)C(=O)N2c2ccc(OC)cc2)cc1` [Example 8B, 1,4(S)-bis(4-methoxyphenyl)-3(R)-(3(S)-acetoxy-3-phenylpropyl)-2-azetidinone] were -95% and -50%.
For the compound `CC(=O)Oc1ccc([C@@H]2[C@@H](CC[C@@H](OC(C)=O)c3ccc(F)cc3)C(=O)N2c2ccc(F)cc2)cc1` [Example 8C, 4(S)-(4-acetyloxyphenyl)-3(R)-(3(R)-acetyloxiy-3-(4-fluorophenyl)propyl)-1-(4-fluorophenyl)-2-azetidinone], the “% Reduction Serum Cholest.” value (dose 1 mg/kg) is −14%. For the same compound, the “% Reduction Cholest. Esters” value under setting [6] is recorded as −37%.
On to `CC(=O)Oc1ccc([C@@H]2[C@@H](CC[C@H](OC(C)=O)c3ccc(F)cc3)C(=O)N2c2ccc(F)cc2)cc1` [Example 8D, 4(S)-(4-acetyloxyphenyl)-3(R)-(3(S)-acetyloxy-3-(4-fluorophenyl)propyl)-1-(4-fluorophenyl)-2-azetidinone], for which the change in vivo at 1 mg/kg was -98% under setting [7] and -49% under setting [8].
For `CC(=O)Oc1ccc([C@@H]2C(CC[C@H](OC(C)=O)c3ccc(Cl)cc3)C(=O)N2c2ccc(Cl)cc2)cc1` (stereo partly shown) [Example 8E], the change in vivo at 3 mg/kg runs as follows: under setting [1], -66%; under setting [2], -22%.
For `CC(=O)Oc1ccc([C@@H]2C(CC[C@@H](OC(C)=O)c3ccc(Cl)cc3)C(=O)N2c2ccc(Cl)cc2)cc1` (stereo partly shown) [Example 8F], the change in vivo at 1 mg/kg under setting [7] is -94% and the change in vivo at 1 mg/kg under setting [8] is -43%.
For the compound `O=C1[C@@H]([C@H](O)CCc2ccccc2)[C@@H](c2ccc(O)cc2)N1c1ccc(F)cc1` [Example 10], the change in vivo at 3 mg/kg is, setting by setting: under setting [1], -77%; under setting [2], -26%.
